According to ChEMBL document CHEMBL1138135, “L-dopa- and dopamine-(R)-alpha-lipoic acid conjugates as multifunctional codrugs with antioxidant properties” (J Med Chem, 2006):
In brackets after ≈: the same amount, converted by molar mass. Activity calls are given as the source filed them. The calls are words filed in the database; no cut-off is given here.

Legend:
[1] = Solubility in water; format: physicochemical
[2] = Aqueous solubility at pH 7.4; format: physicochemical; conditions: buffer
[3] = Aqueous solubility at pH 5.0; format: physicochemical; conditions: buffer
[4] = Partition co-efficient, log P of the compound; format: physicochemical; conditions: octanol/water
[5] = Aqueous solubility at pH 1.3; format: physicochemical; conditions: buffer
Rattus norvegicus [6] = test: Increase in plasmatic Glutathione peroxidase activity after 3 hrs of administration of 132.64 mg/kg to Wistar rats; format: functional, organism-based; set-up: dose 132.64 mg/kg
Rattus norvegicus [7] = test: Increase in plasmatic Glutathione peroxidase activity after 1 hr of administration of 132.64 mg/kg to Wistar rats; format: functional, organism-based; set-up: dose 132.64 mg/kg
Rattus norvegicus [8] = test: Decrease in grooming behavior of Wistar rats after 2 hrs of administration of 132.64 mg/kg; format: functional, organism-based; set-up: dose 132.64 mg/kg
Rattus norvegicus [9] = test: Decrease in plasmatic superoxide dismutase activity after 1 hr and 3 hrs of administration of 132.64 mg/kg to Wistar rats; format: functional, organism-based; set-up: dose 132.64 mg/kg
Rattus norvegicus [10] = test: Decrease in plasmatic superoxide dismutase activity after 1 hr and 3 hrs of administration of 160.54 mg/kg to Wistar rats; format: functional, organism-based; set-up: dose 160.54 mg/kg
Rattus norvegicus [11] = test: Decrease in grooming behavior of Wistar rats after 1 hr of administration of 160.54 mg/kg; format: functional, organism-based; set-up: dose 160.54 mg/kg
Rattus norvegicus [12] = test: Increase in plasmatic Glutathione peroxidase activity after 1 hr of administration of 160.54 mg/kg to Wistar rats; format: functional, organism-based; set-up: dose 160.54 mg/kg

solubility [1] [µg/mL] | solubility [2] [µg/mL] | solubility [3] [µg/mL] | logP [4] | solubility [5] [µg/mL] | Structure (SMILES) | Activity (Rattus norvegicus [6]) | Activity (Rattus norvegicus [7]) | Activity (Rattus norvegicus [8]) | Activity (Rattus norvegicus [9]) | Activity (Rattus norvegicus [10]) | Activity (Rattus norvegicus [11]) | Activity (Rattus norvegicus [12])
49 (≈ 115 µM) | 52 (≈ 122 µM) | 47 (≈ 110 µM) | 3.65 | 0.47 (≈ 1.1 µM) | CC(=O)Oc1ccc(CCNC(=O)CCCC[C@@H]2CCSS2)cc1OC(C)=O |  |  |  |  |  |  | 
12 (≈ 30 µM) | 13 (≈ 32.5 µM) | 11 (≈ 27.5 µM) | 2.16 |  | COC(=O)[C@H](Cc1ccc(O)c(O)c1)NC(=O)CCCC[C@@H]1CCSS1 | Active | Active | Active | Active |  |  | 
0.36 (≈ 1.05 µM) | 1.1 (≈ 3.22 µM) |  | 3.4 | 0.87 (≈ 2.55 µM) | O=C(CCCC[C@@H]1CCSS1)NCCc1ccc(O)c(O)c1 |  |  |  |  |  |  | 
233 (≈ 482 µM) | 38 (≈ 78.6 µM) | 24 (≈ 49.6 µM) | 2.77 | 39 (≈ 80.6 µM) | COC(=O)[C@H](Cc1ccc(OC(C)=O)c(OC(C)=O)c1)NC(=O)CCCC[C@@H]1CCSS1 |  |  |  |  | Active | Active | Active
